Assay results from patent US20090226956A1, “RUNX-MEDIATED ACTION OF NUCLEAR RECEPTORS AND UTILITIES THEREOF” (University of Southern California, priority 2008, published 2009).

Columns and labels:
[1] = tested on: endogenous Runx proteins in PC3 cells; details: 6XOSE2-luciferase, 10 nM DHT
Excerpt: Interaction between AR and Runx proteins in PC3 cells that express endogenous Runx proteins. A. EMSA assessing Runx protein activity using an OSE2 ^32P-labeled probe. Whole cell extracts from PC3 cells were shifted and supershifted with Runx1 and Runx2 antibodies respectively and successfully competed with WT 10× and 100×OSE2 unlabeled probe. […] Confocal of endogenous Runx (fluorescein) proteins and AR (rhodamine) under transfected or untransfected AR conditions.

[2] = tested on: endogenous Runx2 in PC3-AR cells; details: DHT 24 hrs; not in PC3-GFP cells
Excerpt: B. PC3 cell that had been stably transduced with lentiviruses encoding AR or GFP were transiently transfected with the MMTV-Luc (left) or 6XOSE2-Luc (middle) reportersk, followed by luciferase assay, or, they were subjected to RT-qPCR analysis of the OC gene (right). […] Mean±SEM, n=4.
To study the influence of AR on Runx2 activity and on the Runx2 target gene OC in PCa cells, AR was first stably introduced into PC3 cells by retroviral infection. The transduced cells, designated PC3-AR, presumably resemble PCa cells that endogenously express both Runx2 and wild type AR. These cells were transiently transfected with the MMTV-Luc or the 6XOSE2-Luc reporter plasmid. PC3-GFP cells, transduced with a GFP-encoding retrovirus, were used as control.
Quantitative real time RT-PCR—Total RNA was isolated using Aurum Total RNA® kit (Bio-Rad, Hercules, Calif.) following the manufacturer's recommendations. One microgram of total RNA was reverse-transcribed using the Superscript III kit (Invitrogen) and the cDNA was subjected to real-time PCR amplification (RTqPCR) using iQ™ SYBR Green Supermix (Bio-Rad).

[3] = tested on: Runx1; details: COS7, 6XOSE2-luc (FIG. 25)
Description: The ability of sex steroids and their receptors to repress Runx1 was determined by transient transfection assays of COS7 cells as described earlier for Runx2.
We tested the effects of ERαX, ERβ, AR and GR on Runx1 activity using the same assay employed for Runx2.

[4] = tested on: MC3T3-E1 cells
Description: Staining with 4′,6-diamidino-2-phenylindole (DAPI) demarcates the cell nucleus.
A sub-line that had been stably transfected with the 6XOSE2-Luc reporter (51) was employed to simultaneously test the influence of AR on pure Runx2 activity (luciferase) and on OC gene expression.
Confocal immunofluorescence microscopy—Cells were grown on 18 mm^2 cover-slips in 6-well plates for 24 hrs in growth medium with CSS. […] Cells were mounted using Vectashield Hard Set mounting medium with DAPI (Burlingame, Calif.) and viewed using an LSM 510 Zeiss confocal microscope at 60× magnification. Images were processed using the software program Image J.

[5] = tested on: Runx2 occupancy of the endogenous OSE2 site; details: Day-9 MC3T3-E1, DHT four hours, ChIP
Description: Occupancy was quantified by qPCR of an OC promoter fragment containing the OSE2 site or a fragment of the insulin promoter as control.
To test whether the DNA-binding exclusion model operates in vivo, we investigated whether AR interferes with binding of Runx2 to its chromatin-embedded OSE2 element at the OC promoter in MC3T3-E1 cells.
A slight modification was introduced for immunoprecipitation using MC3T3-E1 and PC3-AR cells. These cells were plated in a 150 mm dish in phenol-red free media supplemented with 5% CSS. The MC3T3-E1 cell culture medium was further supplemented, commencing at confluence, with 50 μg/ml ascorbic acid and 150 mM β-glycerophosphate.

[6] = tested on: Runx2 in SaOS-2 cells; details: DHT 24 hrs
Description: Data are representative of at least three independent experiments.
(§5) Transient transfection, luciferase, co-IP and ChIP—These assays were performed essentially as previously described (34, 51).

[7] = tested on: Runx2; assay: 6XOSE2-Luc Runx2 reporter luciferase assay, COS7 cells transfected with Runx2 and AR; assay type: cell-based, human
Description: As COS7 cells were transiently transfected in 96 well format with the Runx2 reporter 6XOSE2-Luc (firefly luciferase) along with expression vectors encoding human Runx2, AR, and GR as indicated. […] B. Parallel sets of COS7 cell cultures were transfected with either the AR reporter MMTV-Luc or the Runx2 reporter 6XOSE-Luc, along with 1 ng each of AR and Runx2 expression plasmids. […] Bar graphs represent luciferase assays, in which the reporters OSE2-Luc (left panel) and MMTV-Luc (right panel), were transfected with expression plasmids encoding wild type AR (WT) or a mutant AR lacking the AF1 domain (ΔAF1) as indicated.
We examined the effect of AR on the transcriptional potential of Runx2 using transient transfection reporter assays COS7 cells, which express neither transcription factor, were transfected with plasmids encoding Runx2 and AR, along with the 6XOSE2-Luc reporter, in which luciferase is controlled by six copies of the OSE2 Runx2 binding site (53).
Since AR is a potent transcription factor, we investigated if its transactivation function was required for repressing Runx2. […] MMTV-Luc and 6XOSE2-Luc were used as reporters for monitoring the transactivation and Runx2 repression functions of AR, respectively, with equal amounts of each of AR and Runx2 expression plasmids co-transfected in both assays.
Unless otherwise stated, these hormones were applied at a final concentration of 10 nM in 0.001% ethanol as the vehicle.
as §5

[8] = tested on: Runx2; assay: 6XOSE2-luc Runx2 reporter luciferase assay, COS7 cells transfected with Runx2 and ERβ; assay type: cell-based, human; details: COS7, 6XOSE2-luc, 10 nM, 24 h
Excerpt: (§1) FIG. 1. ERα inhibits Runx2. (A,B) COS7 cells were transiently transfected with the Runx reporter 6XOSE2-luc (firefly) along with expression vectors encoding human Runx2 (A), Runx1 (B), ERα, and/or ERβ as indicated. […] In each experiment, the firefly luciferase results were corrected for the expression of a co-transfected CMV-renilla luciferase construct (internal control), except for Panel A, where the renilla luciferase values are shown in the inset graph. […] All data are presented as mean values±SEM, with n=4 dish replicates of a representative experiment, repeated at least 3 times.
Cells were seeded at a density of 10,000 per well in 96-well plates and grown in 5% charcoal-stripped serum (CSS)-containing phenol red-free medium for 24 h. The indicated plasmids (50 ng reporter, 52 ng total) were transfected using ‘LTX and Plus reagent’ according to manufacture's specification (Invitrogen, Carlsbad, Calif.). Equimolar amounts of the empty vectors pcDNA 3.1 and pSG5 were used as controls, and the pCAT-basic promoter-less plasmid was used as ‘filler’ DNA. Under these conditions the total amounts of promoter equivalents (molar) and DNA mass (ng) were the same in all wells of a particular experiment. […] Luciferase activity was determined using the dual-assay luciferase kit (Promega, Madison, Wis.).

[9] = tested on: Runx2; assay: 6XOSE2-luc Runx2 reporter luciferase assay, COS7 cells transfected with Runx2 and ERα; assay type: cell-based, human
Excerpt: as §1
(§2) FIG. 6. Various effects of SERM-bound ERα on Runx2. […] (B, C) COS7 cells were transfected with Runx2 and its 6XOSE2-luc reporter (B), or with ERE-luc (C) along with expression vectors coding for the indicated ER isoforms or fragments. […] All data are presented as mean values±SEM, with n=4 dish replicates of a representative experiment, repeated at least 3 times.
Cells were seeded at a density of 10,000 per well in 96-well plates and grown in 5% charcoal-stripped serum (CSS)-containing phenol red-free medium for 24 h. The indicated plasmids (50 ng reporter, 52 ng total) were transfected using ‘LTX and Plus reagent’ according to manufacture's specification (Invitrogen, Carlsbad, Calif.). Equimolar amounts of the empty vectors pcDNA 3.1 and pSG5 were used as controls, and the pCAT-basic promoter-less plasmid was used as ‘filler’ DNA. Under these conditions the total amounts of promoter equivalents (molar) and DNA mass (ng) were the same in all wells of a particular experiment. As an internal control, 0.01 ng of tk-Renilla-luc or CMV-renilla-luc (Promega, Madison, Wis.) was used for correction of transfection efficiency. Cells were subsequently treated with vehicle (EtOH, 0.01%) or the indicated ligands for 24 h. Luciferase activity was determined using the dual-assay luciferase kit (Promega, Madison, Wis.).
COS7 cells were transiently transfected with the indicated expression vectors along with a reporter for either Runx2 (6XOSE2-luciferase) or the classical transcriptional activation activity of ER (ERE-luciferase).

[10] = molecular target: ERα/Runx2 complexes (Homo sapiens, UniProt P03372); details: COS7; E2 10 nM, OHT 100 nM, ICI 182780 100 nM; 24 h
Sequence of ERα/Runx2 complexes (Q13950 1-507 isoform Q13950-2 partner, one chain of several): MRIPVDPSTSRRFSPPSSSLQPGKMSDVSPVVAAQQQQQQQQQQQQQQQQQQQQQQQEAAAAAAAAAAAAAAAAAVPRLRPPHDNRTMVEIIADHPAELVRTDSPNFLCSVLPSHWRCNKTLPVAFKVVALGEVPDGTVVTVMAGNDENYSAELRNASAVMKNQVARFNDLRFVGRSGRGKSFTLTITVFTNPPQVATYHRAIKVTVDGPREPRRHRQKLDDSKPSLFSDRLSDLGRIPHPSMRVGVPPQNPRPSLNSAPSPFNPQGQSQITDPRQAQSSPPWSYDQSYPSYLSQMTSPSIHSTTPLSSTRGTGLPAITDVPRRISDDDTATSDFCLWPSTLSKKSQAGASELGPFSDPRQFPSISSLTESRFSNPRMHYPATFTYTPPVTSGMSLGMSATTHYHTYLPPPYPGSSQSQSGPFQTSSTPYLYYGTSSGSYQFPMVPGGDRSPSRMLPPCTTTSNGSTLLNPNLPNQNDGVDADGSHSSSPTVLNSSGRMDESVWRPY
Description: Cells were seeded at a density of 300,000 per well in six-well plates and grown in 5% CSS-containing phenol red-free medium for 24 h. Cells were transfected when indicated, and 24 h later they were lysed in a 50 mM Tris-HCl buffer (pH 7.4) containing 150 mM NaCl, 1 mM EDTA, 1% Triton X-100, and fresh Protease Inhibitors Cocktail (1%; Sigma, St. Louis, Mo.). […] The remaining lysate was immunoprecipitated with approximately 3 μg of the specified antibody and 30 μl Protein-G beads (Amersham Biosciences Freiburg, Germany) and washed three times for 5 min each with the same buffer, followed by centrifugation at 4,000 rpm for 1 min. […] Input and immunoprecipitates were analyzed by Western blot analysis.

[11] = tested on: Runx2 in MCF7 cells; assay: 6XOSE2-luc Runx2 reporter assay in MCF7 breast cancer cells; assay type: cell-based, human; details: 100 nM
Excerpt: as §2
(§3) COS7 cells were maintained in Dulbeco Modified Eagle Medium (DMEM) and 5% fetal bovine serum (FBS). The mouse osteoblastic cell line MC3T3-E1 was maintained in α-MEM and 10% FBS. Runx-reporter osteoblasts were generated by stable transfection of MC3T3-E1 cells with the 6XOSE2-luc reporter construct using the calcium phosphate coprecipitation method and hygromycin ([…]) as the selection drug. Resistance to hygromycin was conferred by cotransfection of the pCEP plasmid (1:15 molar ratio). To support development of the osteoblast phenotype, cells were treated with 50 μg/ml ascorbic acid and […] β-glycerophosphate commencing at confluence. The human breast cancer cell lines MDA-MB-231, T47D, and MCF7 were maintained in DMEM and 5% FBS.
(§4) Cells were seeded at a density of 10,000 per well in 96-well plates and grown in 5% charcoal-stripped serum (CSS)-containing phenol red-free medium for 24 h. […] Luciferase activity was determined using the dual-assay luciferase kit (Promega, Madison, Wis.).

[12] = tested on: Runx2 in T47D cells; assay: 6XOSE2-luc Runx2 reporter assay in T47D breast cancer cells; assay type: cell-based, human; details: 100 nM
Excerpt: as §2, §3, §4

[13] = molecular target: T1, ERα (Homo sapiens, UniProt P03372); assay: ERE-luc ER reporter luciferase assay in COS7 cells; assay type: cell-based; details: 100 nM (FIG. 6C)
T1 sequence (P03372 1-595): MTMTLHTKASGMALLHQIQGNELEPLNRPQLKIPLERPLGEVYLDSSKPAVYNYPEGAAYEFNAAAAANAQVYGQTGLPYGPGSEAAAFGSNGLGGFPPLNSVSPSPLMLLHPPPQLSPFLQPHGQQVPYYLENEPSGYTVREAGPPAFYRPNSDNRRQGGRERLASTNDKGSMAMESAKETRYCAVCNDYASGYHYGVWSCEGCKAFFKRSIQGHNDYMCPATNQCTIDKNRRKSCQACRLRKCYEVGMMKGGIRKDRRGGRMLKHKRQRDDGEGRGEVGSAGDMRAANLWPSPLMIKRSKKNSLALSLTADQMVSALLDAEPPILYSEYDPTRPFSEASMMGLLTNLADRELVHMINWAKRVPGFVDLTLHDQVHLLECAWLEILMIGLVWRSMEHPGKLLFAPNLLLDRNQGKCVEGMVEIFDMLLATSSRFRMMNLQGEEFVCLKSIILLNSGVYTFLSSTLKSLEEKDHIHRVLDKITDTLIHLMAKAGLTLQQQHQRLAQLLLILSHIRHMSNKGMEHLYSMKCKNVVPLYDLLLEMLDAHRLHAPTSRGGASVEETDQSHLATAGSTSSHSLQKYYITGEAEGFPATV

[14] = tested on: Runx2 in MDA-MB-231 cells; assay: 6XOSE2-luc Runx2 reporter assay in MDA-MB-231 breast cancer cells expressing ERα; assay type: cell-based, human; details: ERα expressed; E2 10 nM, OHT 100 nM, ICI 182780 100 nM
Excerpt: as §2, §3, §4

[15] = tested on: Runx2; details: same cells as Raloxifene; cited from earlier work
[16] = molecular target: AR DBD (Homo sapiens, UniProt P10275 P10275:540-647); assay: EMSA; GST-AR-DBD alone forms no complex with OSE2; details: tags: GST fusion, E. coli BL21(DE3); label: 32P
Sequence of AR DBD (P10275 540-647, one chain of several): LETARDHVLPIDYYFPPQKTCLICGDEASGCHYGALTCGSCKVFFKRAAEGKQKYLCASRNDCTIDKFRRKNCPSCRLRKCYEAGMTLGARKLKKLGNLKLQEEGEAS
Excerpt: Where indicated, the binding reaction also contained purified GST, GST-AR-DBD, GST-AR-DBD^A573D (see FIG. 14G), or anti-Runx2 specific antibodies, either native (n) or denaturated by boiling (b). […] Arrow indicates Runx2/OSE2 complex.
The source for Runx2 was MC3T3-E1 cell extract and recombinant GST-AR-DBD was purified from E. coli.

[17] = COS7, 6XOSE2-Luc, 10 nM, 24 hrs

C[C@]12CCC(=O)C[C@@H]1CC[C@@H]1[C@@H]2CC[C@]2(C)[C@@H](O)CC[C@@H]12 [DHT, dihydrotestosterone]
Endogenous Runx-mediated activity in PC3 cells with transfected AR [1]: also inhibited
6XOSE2-Luc reporter activity in PC3-AR cells [2]: strong repression
OC expression (RT-qPCR) in PC3-AR cells [2]: strongly inhibited
Effect of AR+DHT on Runx1 activity [3]: robustly inhibited
Expression of both 6XOSE2-Luc and OC on day 9 ([4]; MC3T3-E1, DHT chronically since confluence or 24 hrs prior to harvest): strongly inhibited
AR protein levels in early and late MC3T3-E1 cultures ([4]; immunofluorescence, day 1 and day 9, DHT 24 hrs): strongly induced
Decrease of Runx2 occupancy of the endogenous OSE2 site [5]: 2.4 fold
6XOSE2-Luc luciferase activity in SaOS-2 cells [6]: inhibited luciferase activity
Effect on Runx2 activity in the absence of AR [7, 17]: did not affect
Effect on Runx2 activity in the presence of AR [7, 17]: repressed Runx2 activity to basal levels
Effect on Runx2 activity in the presence of GR ([7]; COS7, 6XOSE2-Luc, DHT 10 nM): did not alter

C[C@]12CC[C@@H]3c4ccc(O)cc4CC[C@H]3[C@@H]1CC[C@@H]2O [E2, estradiol]
Effect on Runx2 activity in the presence of ERβ [8]: did not inhibit
Inhibition of Runx2 activity ([9]; COS7, 6XOSE2-luc, in the presence of ERα, E2 10 nM, 24 h (FIG. 1A)): 76%

C[C@]12CC[C@@H]3c4ccc(O)cc4C[C@@H](CCCCCCCCC[S+]([O-])CCCC(F)(F)C(F)(F)F)[C@H]3[C@@H]1CC[C@@H]2O (stereo partly shown) [ICI 182780]
ERα/Runx2 interaction in co-IP (formation of ERα/Runx2 complexes) [10]: strongly induced
Effect on Runx2 in MCF7 cells [11]: slightly stimulated
Effect on Runx2 in T47D cells [12]: slightly stimulated
Stimulation of Runx2 activity ([9]; COS7, 6XOSE2-luc, ERα, ICI 182780 100 nM, 24 h (FIG. 6B)): 3.1 fold
Partial agonist effect on an ERE-containing template [13]: weak
Effect on 6XOSE2 Runx2 reporter in MDA-MB-231 cells [14]: slight if any inhibitory effect

CC(=O)O[C@]1(C(C)=O)CC[C@H]2[C@@H]3C[C@H](C)C4=CC(=O)CC[C@]4(C)[C@H]3CC[C@@]21C [MPA]
Effect of MPA-stimulated AR on Runx activities ([7]; COS7, 6XOSE2-luciferase, Runx2 and Runx1 (FIG. 21)): inhibited Runx activities

CC/C(=C(\c1ccc(O)cc1)c1ccc(OCCN(C)C)cc1)c1ccccc1 [OHT, hydroxytamoxifen]
Effect on Runx2 in MCF7 cells [11]: uniformly inhibitory
Effect on Runx2 in T47D cells [12]: uniformly inhibitory
Effect on Runx2 when bound to the ERαDBD-LBD ([9]; COS7, 6XOSE2-luc, ERαDBD-LBD fragment, 100 nM): stimulatory effect
Effect on Runx2 activity ([9]; COS7, 6XOSE2-luc, full-length ERα, 100 nM, 24 h): slightly inhibited
Effect on 6XOSE2 Runx2 reporter in MDA-MB-231 cells [14]: as strongly as E2

O=C(c1ccc(OCCN2CCCCC2)cc1)c1c(-c2ccc(O)cc2)sc2cc(O)ccc12 [Raloxifene]
Effect on Runx2 activity in COS7 cells (Example V) ([9]; 6XOSE2-luciferase, 100 nM Raloxifene, 24 hrs): small effect is stimulatory

CC/C(=C(\c1ccccc1)c1ccc(OCCN(C)C)cc1)c1ccccc1 [Tamoxifene]
Effect on Runx2 activity in COS7 cells (Khalid et al., 2008, FIG. 6B) [15]: small inhibitory effect

B1: OSE2 probe (dsDNA)
DNA 1: AGCTGCAATCACCAACCACAGCA
DNA 2: TGCTGTGGTTGGTGATTGCAGCT
binding result [16]: no binding
